# Experimental data as given in patent publication US5447717A, “Cholesterol-lowering agents” (Merck & Co., Inc., priority 1993, dated 1995).
# Columns and labels:
# Squalene Synthase = target: T1, Squalene Synthase (Rattus norvegicus, UniProt Q02769); assay: Squalene Synthase Assay (in vitro, rat liver microsomes); assay type: biochemical; conditions: [4-14C]farnesyl pyrophosphate, 30° C., 20 minutes
# T1 construct: from tissue; host or cells: rat liver microsomes (male Charles River CD rats, fed 0.1% lovastatin for 4 days)
# T1 sequence (Q02769 1-416): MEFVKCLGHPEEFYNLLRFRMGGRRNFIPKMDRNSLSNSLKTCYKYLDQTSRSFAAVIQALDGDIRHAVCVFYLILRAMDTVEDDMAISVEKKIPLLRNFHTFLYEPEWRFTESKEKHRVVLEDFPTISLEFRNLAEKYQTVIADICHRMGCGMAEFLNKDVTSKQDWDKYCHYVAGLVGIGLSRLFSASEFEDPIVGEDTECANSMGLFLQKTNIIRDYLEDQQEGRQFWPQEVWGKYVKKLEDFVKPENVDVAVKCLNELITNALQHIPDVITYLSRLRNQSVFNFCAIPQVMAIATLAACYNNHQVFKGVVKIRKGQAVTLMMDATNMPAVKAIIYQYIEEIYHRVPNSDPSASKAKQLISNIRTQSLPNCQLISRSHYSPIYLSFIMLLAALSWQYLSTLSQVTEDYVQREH
# Protocol: The intrinsic squalene synthase inhibitory activity of representative compounds of this invention was measured by the standard ill vitro protocol described below:
# Preparation of Rat Liver Microsomes
# Male, CHARLES RIVER CD® rats (120 to 150 g) were fed a diet containing 0.1% lovastatin for 4 days. The livers from these rats were homogenized in 5 volumes (mL/g) of ice cold 50 mM HEPES (4-(2-hydroxyethyl)-1-piperazine-ethanesulfonic acid), 5 mM EDTA(ethylenediaminetetraacetic acid) pH 7.5 with a Potter-Elvehjem type tissue grinder. The homogenate was centrifuged twice at 20,000 × g for 15 min. at 4° C., discarding the pellet each time. The supernatant was then centrifuged at 100,000 × g for 1 hr at 4° C. The resulting microsomal pellet was resuspended in a volume of the above homogenizing buffer equal to one-fifth the volume of the original homoSenate. This microsomal preparation has a protein concentration of about 7 mg/mL. The microsomal suspensions were stored in aliquots at -70° C. Squalene synthase activity in these aliquots is stable for a least several months.
# Partial Purification of Prenyl Transferase
# Prenyl transferase was purified to use in the enzymatic synthesis of radiolabelled farnesyl pyrophosphate. […]
# Ras = conditions: Hancock et al.; Casey et al.; Schafer et al.; cited from earlier work
structure (smiles),measurement,setting,value
"C=C(CCC12OC3C(=O)OC3(C(=O)O)C(C(=O)O)(O1)C(OC(=O)/C=C/C(C)CC(C)CC)C2O)C(OC(C)=O)C(C)Cc1ccccc1 (stereo not drawn) [Compound 1, IIA-β-Lactone]",IC50,Squalene Synthase,0.4 nM
CC[C@H](C)C(=O)O[C@H]1CCC=C2C=C[C@H](C)[C@H](CC[C@@H]3C[C@@H](O)CC(=O)O3)[C@H]21 [compactin],Inhibition of Ras farnesylation in vivo,Ras,Inhibition of Ras farnesylation in vivohas been demonstrated
CC[C@H](C)C(=O)O[C@H]1C[C@@H](C)C=C2C=C[C@H](C)[C@H](CC[C@@H]3C[C@@H](O)CC(=O)O3)[C@H]21 [lovastatin],Inhibition of Ras farnesylation in vivo,Ras,Inhibition of Ras farnesylation in vivohas been demonstrated
